Laboratory results from BindingDB's records for doi:10.1016/0960-894X(96)00297-1 (1996).

Biological target: Endothelin-converting enzyme 1 (Cavia porcellus)
Assay: In vitro inhibition of phosphoramidon-sensitive membrane bound zinc metalloprotease Endothelin-converting enzyme from partially purified guinea pig lungs

| SMILES | IC50 [µM] |
| --- | --- |
| CC(=O)N[C@@H](Cc1ccccc1)P(=O)(O)CC1(C(=O)N[C@@H](Cc2c[nH]c3ccccc23)C(=O)O)CCCC1 [(S)-2-({1-[((R)-1-Acetylamino-2-phenyl-ethyl)-hydroxy-phosphinoylmethyl]-cyclopentanecarbonyl}-amino)-3-(1H-indol-3-yl)-propionic acid] | 0.6 |
| O=C(N[C@@H](Cc1ccccc1)P(=O)(O)CC1(C(=O)N[C@@H](Cc2c[nH]c3ccccc23)C(=O)O)CCCC1)c1ccccc1 [(S)-2-({1-[((R)-1-Benzoylamino-2-phenyl-ethyl)-hydroxy-phosphinoylmethyl]-cyclopentanecarbonyl}-amino)-3-(1H-indol-3-yl)-propionic acid] | 0.25 |
| O=C(N[C@@H](Cc1ccccc1)P(=O)(O)CC1(C(=O)N[C@@H](Cc2c[nH]c3ccccc23)C(=O)O)CCCC1)OCc1ccccc1 [(S)-2-({1-[((R)-1-Benzyloxycarbonylamino-2-phenyl-ethyl)-hydroxy-phosphinoylmethyl]-cyclopentanecarbonyl}-amino)-3-(1H-indol-3-yl)-propionic acid] | 0.19 |
| O=C(N[C@@H](Cc1ccccc1)P(=O)(O)CC1(C(=O)N[C@@H](Cc2ccc(O)cc2)C(=O)O)CCCC1)OCc1ccccc1 [(S)-2-({1-[((R)-1-Benzyloxycarbonylamino-2-phenyl-ethyl)-hydroxy-phosphinoylmethyl]-cyclopentanecarbonyl}-amino)-3-(4-hydroxy-phenyl)-propionic acid] | 0.12 |
| NC(=O)C[C@H](NC(=O)C1(CP(=O)(O)[C@H](Cc2ccccc2)NC(=O)OCc2ccccc2)CCCC1)C(=O)O [(S)-2-({1-[((R)-1-Benzyloxycarbonylamino-2-phenyl-ethyl)-hydroxy-phosphinoylmethyl]-cyclopentanecarbonyl}-amino)-succinamic acid] | > 1 |

Second part, the compound after the results:

| IC50 [µM] | SMILES |
| --- | --- |
| > 10 | O=C(N[C@H](Cc1ccccc1)P(=O)(O)CC1(C(=O)N[C@@H](Cc2c[nH]c3ccccc23)C(=O)O)CCCC1)OCc1ccccc1 [(S)-2-({1-[((S)-1-Benzyloxycarbonylamino-2-phenyl-ethyl)-hydroxy-phosphinoylmethyl]-cyclopentanecarbonyl}-amino)-3-(1H-indol-3-yl)-propionic acid] |
| 0.16 | COc1ccc(C(=O)N[C@@H](Cc2ccccc2)P(=O)(O)CC2(C(=O)N[C@@H](Cc3c[nH]c4ccccc34)C(=O)O)CCCC2)cc1 [(S)-2-[(1-{Hydroxy-[(R)-1-(4-methoxy-benzoylamino)-2-phenyl-ethyl]-phosphinoylmethyl}-cyclopentanecarbonyl)-amino]-3-(1H-indol-3-yl)-propionic acid] |
| 0.55 | CC(C)(C)C(=O)N[C@@H](Cc1ccccc1)P(=O)(O)CC1(C(=O)N[C@@H](Cc2c[nH]c3ccccc23)C(=O)O)CCCC1 [(S)-2-[(1-{[(R)-1-(2,2-Dimethyl-propionylamino)-2-phenyl-ethyl]-hydroxy-phosphinoylmethyl}-cyclopentanecarbonyl)-amino]-3-(1H-indol-3-yl)-propionic acid] |
| 0.09 | NCc1ccc(C(=O)N[C@@H](Cc2ccccc2)P(=O)(O)CC2(C(=O)N[C@@H](Cc3c[nH]c4ccccc34)C(=O)O)CCCC2)cc1 [(S)-2-[(1-{[(R)-1-(4-Aminomethyl-benzoylamino)-2-phenyl-ethyl]-hydroxy-phosphinoylmethyl}-cyclopentanecarbonyl)-amino]-3-(1H-indol-3-yl)-propionic acid] |
| 1.5 | CC(C)C[C@H](NP(=O)(O)O)C(=O)N[C@@H](Cc1c[nH]c2ccccc12)C(=O)O [(S)-3-(1H-Indol-3-yl)-2-((S)-4-methyl-2-phosphonoamino-pentanoylamino)-propionic acid] |
